Measurements as given in article PMC4180634, “Pharmacokinetic Study and Bioavailability of a Novel Synthetic Trioxane Antimalarial Compound 97/63 in Rats” (Malaria Research and Treatment, 2014).
Where two headings read alike, the source gives them in different places.

Legend:
[1] = Stability studies of 97/63 in rat serum samples (long-term, freeze-thaw, dry residue, autoinjector); type: physicochemical
Protocol: Long-term stability of 97/63 was carried by preparing QC samples at low, medium, and high concentrations in three replicates for four different days and stored at -60°C. These sets of samples were analyzed after 0, 7, 15, and 30 days of storage and their concentrations were read from the respective calibration standard curve. The results are expressed as % deviation from 0 days concentration. F-T stability of 97/63 in serum samples was determined by preparing QC of strengths low (10 ng mL^-1), medium (100 ng mL^-1), and high (500 ng mL^-1) in three replicates for four different days. One set of three concentrations was analyzed on day of preparation (no F-T cycle) before storing the remaining sets at -60°C. Other sets were analyzed after 1, 2, and […] cycles. Thawing was achieved by keeping the sealed tubes at room temperatures for 30 min. The results are expressed as % deviation with initial concentration. The effect of storage on dry residue stability was determined at QC 10 ng mL^-1 (low), 100 ng mL^-1 (medium), and 500 ng mL^-1 (high) concentration levels. All the samples (three replicates of three concentrations × 4 sets) were prepared and dry residue was stored in glass tubes sealed with aluminum foil and then with parafilm. One set in triplicate was reconstituted on day 1 with mobile phase and analyzed on the same day (without storage). The remaining sets were similarly analyzed on days 2, 4, and 8 and results are expressed as % deviation. After sample preparation, stability of 97/63 in the autoinjector was evaluated for 4 h; the maximum duration for which the sample may have to wait in the autoinjector tray for pending analysis and results are expressed in % deviation with initial injection (t = 0 h).

[2] = log P; type: physicochemical
[3] = tested on: malarial parasites; set-up: method as in earlier work; settings: cited from earlier work
[4] = Single dose pharmacokinetic study after oral and intravenous administration in male rats (serum, HPLC-UV); type: in vivo, Sprague-Dawley rats; settings: for half-life: two-compartment model
Source text: Male Sprague-Dawley (SD) rats weighing 250 ± 25 g for this study were obtained from institutional Laboratory Animal Division, CDRI, Lucknow, prior to study. Rats were given standard pellets for feeding and filtered water was given ad libitum and they were housed in well ventilated cages which were kept at room temperature on a regular 12-h light-dark cycle. Animals were kept in accordance with the guidelines of local ethical committee (Ethical approval 58/08/PKM/IAEC) for animal experimentation and principles of the guide for care and use of laboratory animals were followed (Department of Health Education and Welfare, number [NIH] 85-32). Oral and IV study was carried out in two sets (I and II). Each set contained two groups, that is, groups A and B. PK was carried out by dosing 97/63 in two groups (A and B) containing four rats in each group for sparse sampling. Young and healthy male SD rats weighing 250 ± 25 g (obtained from Laboratory Animal Division of CDRI) were housed in well ventilated cages and kept at room temperature 25 ± 2°C on a regular 12-h light-dark cycle. Animals were cared for in accordance with the principles of guide for care and use of laboratory animals. Animals in oral study group were fasted overnight to minimize the effects of food on pharmacokinetic profile of 97/63. Intravenous dose was administered as a single bolus injection through tail vein using a 26 G needle after dilating the tail vein [16]. The oral dose was administered using a 2 mL syringe and feeding needle. After intravenous and oral dose administration, rats were also monitored for physiological behavior. […] The intravenous formulation for single dose, 18 mg kg^−1, was a solution of 97/63 in DMSO. The oral formulation for single dose, 72 mg kg^−1, was also a solution of 97/63 in DMSO. The formulations were subjected to quality control (QC) checks to ensure their strength and content uniformity prior to use. The strength of formulation for intravenous and oral administration was 18 mg mL^−1 and 36 mg mL^−1. Compound 97/63 formulated in DMSO was administered to overnight fasted rats by oral and intravenous route. The dose volume factor for intravenous administration was 1 mL kg^−1, with 250 g rat receiving 0.25 mL, and for oral administration it was 2 mL kg^−1, with 250 g rat receiving 0.5 mL of formulation. Sparse sampling approach was used to collect blood samples by cardiac puncture. The total volume of blood withdrawn within 24 hours was less than 5% of blood volume. Blood samples were collected in glass tubes at 0.083, 0.25, 0.5, 0.75, 1, 1.5, 2, 3, 4, 6, 8, 10, 18, 24, 48, and 60 h after oral dose. Blood samples were stored at room temperature for 30 min to separate the serum. Serum was separated by centrifugation at 1500 ×g for 10 min and stored at –60°C until analysis. Analysis was performed within 30 days of sample collection. Curve fitting and estimation of pharmacokinetic parameters of 97/63 were carried out using WinNonlin (5.1) software program (Pharsight Corp, USA). The data were tested using Gauss-Newton algorithm, with noncompartment, one compartment, and two-compartment models after applying different weighting factor to the observed values of the concentrations. Decision on the suitability of a particular compartment model in explaining the data was undertaken based on the Akaike or Schwarz information criterion, correlation coefficient, and scatter of residuals.

[5] = tested on: malarial parasites; set-up: method as in earlier work; settings: cited from earlier work; remark: listed apart in the source
[6] = Sprague-Dawley, rat, oral 72 mg kg^−1, male rats, serum

reinjection (autoinjector) stability, deviation ([1]; 4 h gap, samples stored at 4°C): less than 10% | dry residue stability after extraction ([1]; 8 days stored at −60°C): stable | long-term stability in serum ([1]; 30 days, normal serum stored at −60°C): stable | freeze-thaw stability in serum ([1]; three F-T cycles): stable | logP [2]: < 3.5 | clearance ([4]; Sprague-Dawley, rat, serum, intravenous 18 mg kg^−1, male rats): 148 mL/min/kg | Vd ([4]; Sprague-Dawley, rat, serum, intravenous 18 mg kg^−1, male rats, read-out: Vd): 135 ± 11.2 L/kg | AUC(0-inf) ([4]; Sprague-Dawley, rat, intravenous 18 mg kg^−1, male rats, serum): 2030 ± 574 ng·h/mL | C0 ([4]; Sprague-Dawley, rat, intravenous 18 mg kg^−1, male rats, serum, mean ± SD, N = 4): 1800 ± 330 ng/mL | AUC(0-inf) [4, 6]: 1270 ± 27 ng·h/mL | Tmax [4, 6]: 1 ± 0.7 h | Cmax ([4]; Sprague-Dawley, rat, oral 72 mg kg^−1, male rats, serum, mean ± SD, N = 4): 229 ± 64.3 ng/mL | metabolite peaks in rat serum ([4]; after oral and intravenous dose, HPLC-UV): No metabolite peaks were observed | half-life ([4]; male, Sprague-Dawley, rat, serum, iv, 18 mg/kg, intravenous 18 mg kg^−1, male rats, read-out: T 1/2 (α) distribution half-life (converted)): 0.45 ± 0.08 h | half-life ([4]; male, Sprague-Dawley, rat, serum, iv, 18 mg/kg, intravenous 18 mg kg^−1, male rats, read-out: T 1/2 (β) elimination half-life (converted)): 10.6 ± 0.16 h | bioavailability ([4]; male, Sprague-Dawley, rat, serum, oral, 72 mg kg^−1, oral 72 mg kg^−1 vs intravenous 18 mg kg^−1, male rats, read-out: % bioavailability (absolute)): ~16% | half-life ([4]; male, Sprague-Dawley, rat, serum, po, 72 mg/kg, oral 72 mg kg^−1, male rats, read-out: T 1/2 (α) distribution half-life (converted)): 0.84 ± 0.14 h | half-life ([4]; male, Sprague-Dawley, rat, serum, po, 72 mg/kg, oral 72 mg kg^−1, male rats, read-out: T 1/2 (β) elimination half-life (converted)): 10.6 ± 0.2 h | Cl ([4]; oral 72 mg kg^−1, male rats): 187 ± 1.2 mL/min/kg | Vd ([4]; oral 72 mg kg^−1, male rats): 172.31 ± 28.59 L/kg | absorption rate constant (K a) ([4]; oral 72 mg kg^−1, male rats): 0.82 h⁻¹ | clinical symptoms after dosing ([4]; oral 72 mg kg^−1 and intravenous 18 mg kg^−1, male rats, sampling period): No abnormal clinical symptoms | % bioavailability (absolute) ([4]; oral 72 mg kg^−1 vs intravenous 18 mg kg^−1, male rats): 15.66%
SMILES: C=C(c1ccc(OC(C)(C)CO)cc1)C1COC2(OO1)C1CC3CC(C1)CC2C3 (stereo not shown) [97/63]
potency against malarial parasites in vivo [3]: good potency | potency against malarial parasites in vitro [5]: good potency
